Measurements reported in US20240368163A1, “COMPOUNDS AND METHODS FOR MODULATING SPLICING” (REMIX THERAPEUTICS INC., priority 2021, published 2024).
pIC50: −log10 of the molar value. Like-named read-outs stand apart in the source and are kept apart here.

Experiments:
Format in all cases: cell-based, human
Target C [1] = assay: Splicing RT-qPCR panel, Target C canonical junction (CJ) mRNA; conditions: Homo sapiens, read-out: Target C IC50 (decrease in CJ mRNA levels)
Procedure, shortened: (§1)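 Cells: A673 (DMEM/10% FBS) or K562 (IMDM/10% FBS). Dose: 11-pt 3-fold, top 10 uM final, ≤0.25% DMSO, 24 h, 37 °C. Readout: RT-qPCR of CJ/AJ exon junctions, ΔΔCt vs housekeeper and DMSO, RQ to % response.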

SMN2 = assay: Splicing RT-qPCR panel, SMN2 canonical junction (CJ) mRNA; conditions: Homo sapiens, read-out: SMN2 IC50 (decrease in CJ mRNA levels)
Procedure, shortened: as §1

HTT [2] = assay: Splicing RT-qPCR assay, HTT mRNA canonical junction (CJ) and alternative junction (AJ); conditions: Homo sapiens; for AC50: increase in AJ mRNA
Procedure, shortened: as §1

MYB [3] = assay: Splicing RT-qPCR assay, MYB mRNA canonical junction (CJ) and alternative junction (AJ); conditions: Homo sapiens; for AC50: increase in AJ mRNA
Procedure, shortened: as §1

Target C [4] = assay: HiBiT protein abundance assay, Target C; conditions: Homo sapiens, K562, 24 h, modified K562 cells
Procedure, shortened: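 Cells carrying the HiBiT knock-in were plated at 10000 cells/well, dosed with compound (10-point, 3-fold, 10 μM top final) and incubated 24 hours at 37 °C. Lytic reagent was then added and luminescence read. Percent response fed a 4PL fit for IC50.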

MYB [5] = assay: HiBiT protein abundance assay, MYB; conditions: Homo sapiens, K562, 24 h, modified K562 cells
Procedure, shortened: (§2)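 Target abundance was measured as HiBiT luminescence after 24 h compound treatment of tagged K562 cells. Responses were normalized between unmodified K562 and DMSO-treated tagged cells, and IC50 taken at the 50% level of a 4PL curve.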

HTT [6] = assay: HiBiT protein abundance assay, HTT; conditions: Homo sapiens, K562, 24 h, modified K562 cells
Procedure, shortened: as §2

[7] = RT-qPCR panel, canonical junction mRNA, compound concentration having 50% response in CJ decrease
[8] = 24 h, A673 or K562 cells, 24 hours treatment, RT-qPCR
[9] = RT-qPCR panel, canonical junction mRNA, compound concentration having 50% response in CJ decrease, read-out: HTT IC50 (decrease in CJ mRNA levels)
[10] = 24 h, decrease in CJ mRNA, A673 or K562 cells, 24 hours treatment, RT-qPCR, read-out: MYB CJ IC50
[11] = RT-qPCR panel, canonical junction mRNA, compound concentration having 50% response in CJ decrease, read-out: MYB IC50 (decrease in CJ mRNA levels)
[12] = gene panel, CJ qPCR, protocol of Example 142
[13] = gene panel, CJ qPCR, protocol of Example 142, read-out: HTT IC50 (decrease in CJ mRNA levels)
[14] = gene panel, CJ qPCR, protocol of Example 142, read-out: MYB IC50 (decrease in CJ mRNA levels)
[15] = 24 h, decrease in CJ mRNA, A673 or K562 cells, 24 hours treatment, RT-qPCR, read-out: HTT CJ IC50

Row | Structure (SMILES) | pIC50 (Target C [1]; [7]) | pIC50 (SMN2; [7]) | pIC50 (HTT [2]; [9]) | pIC50 (MYB [3]; [10]) | pIC50 (MYB [3]; [11]) | pIC50 (Target C [4]; Table 13A) | pIC50 (MYB [5]; Table 13A) | pIC50 (HTT [6]; Table 13A) | pIC50 (HTT [2]; [15]) | AC50 (HTT [2]; [8]) [nM] | AC50 (MYB [3]; [8]) [nM] | pIC50 (Target C [1]; [12]) | pIC50 (SMN2; [12]) | pIC50 (HTT [2]; [13]) | pIC50 (MYB [3]; [14]) | pIC50 (Target C [4]; Table 13B) | pIC50 (MYB [5]; Table 13B) | pIC50 (HTT [6]; Table 13B)
1 | c1nc2c(-c3cn[nH]c3)ccc(-c3ccc(N[C@@H]4C[C@H]5COC[C@@H](C4)N5)nn3)c2s1 [Compound 354, (endo)-N-{6-[4-(1H-pyrazol-4-yl)-1,3-benzothiazol-7-yl]pyridazin-3-yl}-3-oxa-9-azabicyclo[3.3.1]nonan-7-amine] | 6.00 to 7.00 | > 7.00 | > 7.00 | 6.00 to 7.00 | 6.00 to 7.00 | 6.00 to 7.00 | 6.00 to 7.00 | 6.00 to 7.00 |  | 100 to 1000 | 1000 to 10000 |  |  |  |  |  |  | 
2 | COc1nc(-c2ccc(OC3CC4CC(F)(F)C(C3)N4)nn2)ccc1C1C=CC(F)=C1 (stereo not drawn) [Compound 971] |  |  |  |  |  |  |  |  |  |  |  | 5.00 to 6.00 | 5.00 to 6.00 | 5.00 to 6.00 | 5.00 to 6.00 | 5.00 to 6.00 | 5.00 to 6.00 | 5.00 to 6.00
3 | c1nc2c(-c3cn[nH]c3)ccc(-c3ccc(N4CC5(CCNCC5)C4)nn3)c2s1 [Compound 197] | < 5.00 | 5.00 to 6.00 | 5.00 to 6.00 | < 5.00 | < 5.00 | 5.00 to 6.00 | 5.00 to 6.00 | 5.00 to 6.00 | 5.00 to 6.00 | 1000 to 10000 | > 10000 |  |  |  |  |  |  | 
4 | CN(c1ccc(-c2ccc(-c3cn[nH]c3)c3cn[nH]c23)nn1)[C@@H]1C[C@H]2CCC[C@@H](C1)N2 [Compound 295] | > 7.00 | > 7.00 | > 7.00 | > 7.00 | > 7.00 | > 7.00 | > 7.00 | > 7.00 |  | < 100 | 100 to 1000 |  |  |  |  |  |  | 
5 | COc1nc(-c2ccc(OC3CC(C)(C)NC(C)(C)C3)nn2)ccc1-c1cnn(C)n1 [Compound 926] |  |  |  |  |  |  |  |  |  |  |  | 5.00 to 6.00 | 6.00 to 7.00 | 6.00 to 7.00 | 5.00 to 6.00 | 6.00 to 7.00 | 5.00 to 6.00 | 6.00 to 7.00
6 | COc1nc(-c2ccc(NC3CCNCC3)nc2)ccc1-c1cnn(C)c1 [Compound 986] |  |  |  |  |  |  |  |  |  |  |  | 5.00 to 6.00 | 6.00 to 7.00 | 5.00 to 6.00 | 5.00 to 6.00 | 5.00 to 6.00 | 5.00 to 6.00 | 6.00 to 7.00
7 | COc1nc(-c2ccc(N(C)C3CC(C)(C)NC(C)(C)C3)nc2)ccc1-n1cccn1 [Compound 995] |  |  |  |  |  |  |  |  |  |  |  | < 5.00 | 5.00 to 6.00 | 5.00 to 6.00 | < 5.00 | 5.00 to 6.00 | 5.00 to 6.00 | 5.00 to 6.00
8 | c1nc2c(-c3cn[nH]c3)ccc(-c3ccc(N4CCC5(CCNC5)CC4)nn3)c2s1 [Compound 192] | < 5.00 | < 5.00 | < 5.00 | < 5.00 | < 5.00 | < 5.00 | < 5.00 | < 5.00 | < 5.00 | > 10000 | > 10000 |  |  |  |  |  |  | 
9 | CCN(c1ccc(-c2ccc(-c3cn[nH]c3)c3ncsc23)nn1)C1CC(C)(C)NC(C)(C)C1 [Compound 225] | 5.00 to 6.00 | 6.00 to 7.00 | 5.00 to 6.00 | 6.00 to 7.00 | 6.00 to 7.00 | 5.00 to 6.00 | 6.00 to 7.00 | 6.00 to 7.00 | 5.00 to 6.00 | 1000 to 10000 | > 10000 |  |  |  |  |  |  | 
10 | CN(c1ccc(-c2cc(F)c(-c3cn[nH]c3)c3cn[nH]c23)nn1)[C@@H]1C[C@H]2CC[C@@H](C1)N2 [Compound 351] | 6.00 to 7.00 | > 7.00 | > 7.00 | 6.00 to 7.00 | 6.00 to 7.00 | 6.00 to 7.00 | 6.00 to 7.00 | > 7.00 |  | < 100 | 100 to 1000 |  |  |  |  |  |  | 
11 | Cc1ncc(-c2ccc(-c3ccc(N(C)C4CC(C)(C)NC(C)(C)C4)nc3)c3ncsc23)o1 [Compound 201] | 5.00 to 6.00 | 6.00 to 7.00 | 5.00 to 6.00 | 5.00 to 6.00 | 5.00 to 6.00 | < 5.00 | 5.00 to 6.00 | 5.00 to 6.00 | 5.00 to 6.00 | 1000 to 10000 | 1000 to 10000 |  |  |  |  |  |  | 
12 | FC1(F)C[C@@H]2C[C@@H](Oc3ccc(-c4ccc(-c5cn[nH]c5)c5cn[nH]c45)nn3)C[C@H]1N2 (stereo in doubt) [Compound 373, 7-[6-({6,6-difluoro-8-azabicyclo[3.2.1]octan-3-yl}oxy)pyridazin-3-yl]-4-(1H-pyrazol-4-yl)-1H-indazole] | 5.00 to 6.00 | 6.00 to 7.00 | 6.00 to 7.00 | 5.00 to 6.00 | 5.00 to 6.00 | 5.00 to 6.00 | 5.00 to 6.00 | 6.00 to 7.00 | 6.00 to 7.00 | 100 to 1000 | 100 to 1000 |  |  |  |  |  |  | 
13 | c1cnn(-c2ccc(-c3cnc(N4CCNC5(CC5)C4)nn3)c3cn[nH]c23)c1 [Compound 577] | < 5.00 | 5.00 to 6.00 | 6.00 to 7.00 |  | < 5.00 | < 5.00 | 5.00 to 6.00 | 5.00 to 6.00 |  |  |  |  |  |  |  |  |  | 

The next lines start with results.

Row | pIC50 (Target C [1]; [7]) | pIC50 (SMN2; [7]) | pIC50 (HTT [2]; [9]) | pIC50 (MYB [3]; [10]) | pIC50 (MYB [3]; [11]) | pIC50 (Target C [4]; Table 13A) | pIC50 (MYB [5]; Table 13A) | pIC50 (HTT [6]; Table 13A) | pIC50 (HTT [2]; [15]) | Structure (SMILES) | AC50 (HTT [2]; [8]) [nM] | AC50 (MYB [3]; [8]) [nM] | pIC50 (Target C [1]; [12]) | pIC50 (SMN2; [12]) | pIC50 (HTT [2]; [13]) | pIC50 (MYB [3]; [14]) | pIC50 (Target C [4]; Table 13B) | pIC50 (MYB [5]; Table 13B) | pIC50 (HTT [6]; Table 13B)
14 | 5.00 to 6.00 | 5.00 to 6.00 | 5.00 to 6.00 | 5.00 to 6.00 | 5.00 to 6.00 | 5.00 to 6.00 | 5.00 to 6.00 | 5.00 to 6.00 | 5.00 to 6.00 | c1nc2c(-c3cn[nH]c3)ccc(-c3ccc(N4CCC45CCCNC5)nn3)c2s1 (stereo not drawn) [Compound 276] | 1000 to 10000 | 1000 to 10000 |  |  |  |  |  |  | 
15 | < 5.00 | 6.00 to 7.00 | 6.00 to 7.00 | < 5.00 | < 5.00 | 5.00 to 6.00 | 5.00 to 6.00 | 5.00 to 6.00 | 6.00 to 7.00 | CNC1CCN(c2ncc(-c3ccc(-c4cn[nH]c4)c4ncsc34)nn2)C1 (stereo not drawn) [Compound 412, N-methyl-1-[6-[4-(1H-pyrazol-4-yl)-1,3-benzothiazol-7-yl]-1,2,4-triazin-3-yl]pyrrolidin-3-amine] | 1000 to 10000 | > 10000 |  |  |  |  |  |  | 
16 | < 5.00 | 6.00 to 7.00 | < 5.00 | < 5.00 | < 5.00 | 5.00 to 6.00 | 6.00 to 7.00 | 5.00 to 6.00 | < 5.00 | CN1CCC12CCN(c1ccc(-c3ccc(-c4cn[nH]c4)c4ncsc34)nn1)C2 (stereo not drawn) [Compound 287] | > 10000 | > 10000 |  |  |  |  |  |  | 
17 | < 5.00 | < 5.00 | < 5.00 | < 5.00 | < 5.00 | < 5.00 | 5.00 to 6.00 | 5.00 to 6.00 | < 5.00 | c1cnn(-c2ccc(-c3ccc(N4CCC(NC5CC5)C4)nn3)c3scnc23)c1 (stereo not drawn) [Compound 346, N-cyclopropyl-1-{6-[4-(pyrazol-1-yl)-1,3-benzothiazol-7-yl]pyridazin-3-yl}pyrrolidin-3-amine] | > 10000 | > 10000 |  |  |  |  |  |  | 
18 | < 5.00 | 6.00 to 7.00 | 5.00 to 6.00 | 5.00 to 6.00 | 5.00 to 6.00 | 5.00 to 6.00 | < 5.00 | 6.00 to 7.00 | 5.00 to 6.00 | c1nc2c(-c3cn[nH]c3)ccc(-c3ccc(N4CCNC(C5CC5)C4)nn3)c2s1 (stereo not drawn) [Compound 417] | > 10000 | 1000 to 10000 |  |  |  |  |  |  | 
19 | < 5.00 | 6.00 to 7.00 | < 5.00 | < 5.00 | < 5.00 | < 5.00 | 5.00 to 6.00 | 5.00 to 6.00 | < 5.00 | CN1C[C@@H]2CN(c3ccc(-c4ccc(-c5cn[nH]c5)c5cn[nH]c45)nn3)C[C@@H]2C1 [Compound 255] | > 10000 | 1000 to 10000 |  |  |  |  |  |  | 
